Key:
Test in all cases: relative viability (nuclei count vs DMSO), 5 days (fraction); higher = more cells survive
AZD5582 + Trametinib = compound: C[C@@H](C(=O)N[C@@H](C1CCCCC1)C(=O)N2CCC[C@H]2C(=O)N[C@@H]3[C@@H](CC4=CC=CC=C34)OCC#CC#CCO[C@@H]5CC6=CC=CC=C6[C@@H]5NC(=O)[C@@H]7CCCN7C(=O)[C@H](C8CCCCC8)NC(=O)[C@H](C)NC)NC [AZD5582] + CC(=O)Nc1cccc(-n2c(=O)n(C3CC3)c(=O)c3c(Nc4ccc(I)cc4F)n(C)c(=O)c(C)c32)c1 [Trametinib] (partner 0.02 µM)
Procedure, shortened: (§1)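 Lung cancer cell lines were pin-tool dosed in 1536-well plates on the day after seeding, with either a lone drug or a fixed anchor-drug dose plus five library-drug doses (not always all listed) in √10 steps. Nuclei were counted on 4× images after 5 days. Relative viability is the ratio of treated-well to vehicle-well nuclei counts, with each value a median of duplicate plates.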

[1] = compound: Cn1nnc2c(C(N)=O)ncn2c1=O [Temozolomide] + N=C(N)NC(=N)NCCc1ccccc1 [Phenformin] (partner 250 µM)
Procedure, shortened: as §1

AZD5582 + Pictilisib = compound: C[C@@H](C(=O)N[C@@H](C1CCCCC1)C(=O)N2CCC[C@H]2C(=O)N[C@@H]3[C@@H](CC4=CC=CC=C34)OCC#CC#CCO[C@@H]5CC6=CC=CC=C6[C@@H]5NC(=O)[C@@H]7CCCN7C(=O)[C@H](C8CCCCC8)NC(=O)[C@H](C)NC)NC [AZD5582] + CS(=O)(=O)N1CCN(Cc2cc3nc(-c4cccc5[nH]ncc45)nc(N4CCOCC4)c3s2)CC1 [Pictilisib] (partner 1 µM)
Procedure, shortened: as §1

AZD5582 + AZD7762 = compound: C[C@@H](C(=O)N[C@@H](C1CCCCC1)C(=O)N2CCC[C@H]2C(=O)N[C@@H]3[C@@H](CC4=CC=CC=C34)OCC#CC#CCO[C@@H]5CC6=CC=CC=C6[C@@H]5NC(=O)[C@@H]7CCCN7C(=O)[C@H](C8CCCCC8)NC(=O)[C@H](C)NC)NC [AZD5582] + NC(=O)Nc1cc(-c2cccc(F)c2)sc1C(=O)N[C@H]1CCCNC1 [AZD7762] (partner 0.2 µM)
Procedure, shortened: as §1

| Cell Line | relative viability (AZD5582 + Trametinib; first compound 0.001581 µM) | relative viability (AZD5582 + Trametinib; first compound 0.005 µM) | relative viability (AZD5582 + Trametinib; first compound 0.01581 µM) | relative viability (AZD5582 + Trametinib; first compound 0.05 µM) | relative viability ([1]; first compound 0.2 µM) | relative viability ([1]; first compound 0.6325 µM) | relative viability ([1]; first compound 2 µM) | relative viability ([1]; first compound 6.325 µM) | relative viability ([1]; first compound 20 µM) | relative viability (AZD5582 + Pictilisib; first compound 0.001581 µM) | relative viability (AZD5582 + Pictilisib; first compound 0.005 µM) | relative viability (AZD5582 + Pictilisib; first compound 0.01581 µM) | relative viability (AZD5582 + Pictilisib; first compound 0.05 µM) | relative viability (AZD5582 + AZD7762; first compound 0.001581 µM) | relative viability (AZD5582 + AZD7762; first compound 0.005 µM) | relative viability (AZD5582 + AZD7762; first compound 0.01581 µM) | relative viability (AZD5582 + AZD7762; first compound 0.05 µM) |
| --- | --- | --- | --- | --- | --- | --- | --- | --- | --- | --- | --- | --- | --- | --- | --- | --- | --- |
| NCI-H650 | 0.919 | 1.05 | 0.987 | 0.944 | 0.547 | 0.443 | 0.403 | 0.404 | 0.423 | 0.645 | 0.702 | 0.759 | 0.589 | 1.05 | 1.07 | 0.643 | 0.788 |
| LC-2-ad | 0.92 | 1.04 | 0.942 | 1.04 | 0.609 | 0.651 | 0.584 | 0.601 | 0.46 | 0.327 | 0.673 | 0.644 | 0.662 | 0.821 | 1.04 | 0.801 | 0.929 |
| NCI-H1299 | – | – | – | – | – | – | – | – | – | 0.702 | 0.879 | 0.822 | 0.805 | – | – | – | – |
| NCI-H3122 | 0.269 | 0.224 | 0.24 | 0.206 | 0.394 | 0.378 | 0.385 | 0.376 | 0.369 | 0.626 | 0.569 | 0.548 | 0.189 | 0.899 | 0.988 | 1.01 | 0.306 |
| EBC-1 | – | – | – | – | – | – | – | – | – | 0.256 | 0.328 | 0.346 | 0.344 | – | – | – | – |
| NCI-H441 | 0.508 | 0.636 | 0.385 | 0.34 | 1.07 | 0.892 | 0.93 | 0.738 | 0.944 | 0.419 | 0.536 | 0.405 | 0.47 | 0.942 | 0.895 | 1.02 | 0.867 |
| LOU-NH91 | 0.772 | 0.767 | 0.781 | 0.808 | 0.612 | 0.74 | 0.711 | 0.788 | 0.476 | 0.557 | 0.521 | 0.534 | 0.539 | 0.715 | 0.833 | 0.704 | 0.742 |
| LXF-289 | 0.641 | 0.647 | 0.654 | 0.726 | 0.553 | 0.53 | 0.511 | 0.457 | 0.458 | 0.705 | 0.795 | 0.757 | 0.794 | 1.01 | 1.09 | 0.963 | 1.12 |
| HCC-827 | 0.538 | 0.611 | 0.515 | 0.589 | 0.248 | 0.443 | 0.397 | 0.41 | 0.131 | 0.995 | 0.954 | 0.979 | 1.06 | 0.192 | 0.139 | 0.211 | 0.186 |
| RERF-LC-KJ | 0.764 | 0.818 | 0.898 | 0.781 | 0.444 | 0.466 | 0.442 | 0.41 | 0.427 | 0.471 | – | 0.541 | 0.392 | 0.2 | 0.414 | 0.855 | 0.491 |
| NCI-H2228 | 0.529 | 0.434 | 0.714 | 0.161 | 0.411 | 0.508 | 0.307 | 0.3 | 0.351 | 0.286 | 0.352 | 0.378 | 0.193 | – | – | – | – |
| SW 1573 | 0.473 | 0.586 | 0.537 | 0.662 | 0.348 | 0.384 | 0.457 | 0.367 | 0.348 | 0.487 | 0.612 | 0.635 | 0.674 | – | – | – | – |
| NCI-H1792 | 0.347 | 0.482 | 0.478 | 0.669 | 0.61 | 0.352 | 0.328 | 0.155 | 0.271 | 0.278 | 0.345 | 0.28 | 0.35 | 0.647 | 0.625 | 0.585 | 1.02 |
| ChaGo-K-1 | 0.897 | 0.883 | 0.886 | 0.936 | 0.595 | 0.484 | 0.617 | 0.413 | 0.509 | 0.757 | 0.965 | 0.432 | 0.78 | 0.794 | 0.874 | 0.816 | 0.837 |
| NCI-H1650 | 0.447 | 0.596 | 0.514 | 0.621 | 0.458 | 0.468 | 0.446 | 0.424 | 0.311 | 0.535 | 0.738 | 0.485 | 0.604 | – | – | – | – |
| HARA | 0.464 | 0.719 | 0.747 | 0.976 | 0.446 | 0.493 | 0.401 | 0.414 | 0.394 | 0.553 | 0.494 | 0.381 | 0.338 | 0.204 | 0.261 | 0.315 | 0.225 |
| SW 900 | 0.634 | 0.865 | 0.758 | 0.615 | 0.754 | 0.671 | 0.556 | 0.464 | 0.718 | – | – | – | – | 0.539 | 0.491 | 0.544 | 0.31 |
| NCI-H520 | 0.605 | 0.784 | 0.791 | 0.708 | 0.589 | 0.548 | 0.675 | 0.499 | 0.589 | 0.266 | 0.283 | 0.303 | 0.311 | – | – | – | – |
| ABC-1 | – | – | – | – | 0.241 | 0.232 | 0.24 | 0.213 | 0.237 | 0.586 | 0.93 | 0.478 | 0.679 | 0.59 | 1.13 | 0.72 | 0.572 |
| NCI-H1734 | 0.621 | 0.696 | 0.743 | 0.701 | 0.474 | 0.454 | 0.437 | 0.383 | 0.342 | 0.455 | 0.514 | 0.451 | 0.631 | 0.502 | 0.498 | 0.584 | 0.749 |

Reference: the supplement of paper PMC10307832
